Results published in patent US11427596B2, “Metal-free solvent-free synthesis of fused-pyrido heterocycles and biomedical applications” (Indian Institute of Technology Indore, priority 2019, dated 2022).
pIC50: −log10 of the molar value. Values joined by “and” are separate entries in the source; they are usually repeats but may differ in a detail not shown here. Identical values can stand only once.

Key:
MCF-7 = experiment: Crystal violet cytotoxicity assay, MCF-7; type: cell-based; details: Homo sapiens, MCF7, 48 h incubation, triplicate
Procedure: (§1) FIG. 16 illustrates dose vs response curves of carbolines 18ac, 18bc, 18da and 18fa in HeLa, MCF-7, HEK293, A431 and A549 cell lines for 48 h incubation. IC50 values were determined by standard crystal violet assay in triplicate, according to the embodiments as disclosed herein. In vitro studies: The cytotoxicity of novel carboline derivatives 18ac, 18bc, 18da and 18fa were tested through standard crystal violet assay on human malignant cell lines such as HeLa, MCF-7, HEK293, A431 and A549. Cells were plated in a 96 well plate (1800 cells per well) and incubated for 48 h at 37° C. under 5% CO2. At 50% confluency, cells were incubated with a series of concentrations (0.1 μM, 0.25 μM, 0.5 μM, 1 μM, 2.5 μM, 5 μM, 10 μM, 25 μM, 50 μM and 100 μM) of the carbolines 18ac, 18bc, 18da and 18fa, respectively, for 48 h.
(§2) Procedure for cytotoxicity assay of carbolines in cancer cell lines: For this purpose, carbolines 18ac, 18bc, 18da and 18fa were subjected to a standard cell viability study (Crystal Violet assay) for examining anticancer activity against various human cancer cell lines such as HeLa, MCF-7, HEK293, A431 and A549. Crystal Violet is a triarylmethane dye which stains adhered cells by binding to the […]. The amount of Crystal Violet stain in the assay is directly proportional to the live cell biomass adhered on the plate after repeated washing. The above human cancer cell lines were plated in a 96-well tissue culture plate (1800 cells/well,) and incubated for 48 h in RPMI 1640 medium (volume≥100 μL/well), supplemented with 10% heat inactivated fetal bovine serum (HIFBS) and 1% Penicillin-Streptomycin antibiotic at 37° C., 5% CO2. Once the monolayer achieved 50% confluency/well, spent medium was aspirated and replaced with fresh medium≥100 μL/well, supplemented with increasing concentrations of carbolines 18ac, 18bc, 18da and 18fa (0.1 μM, 0.25 μM, 0.5 μM, 1 μM, 2.5 μM, 5 μM, 10 μM, 25 μM, 50 μM and 100 μM), respectively, and incubated for 48 h, at 37° C., 5% CO2. For positive control, 40% DMSO in culture medium was added to three wells and incubated under identical conditions. […] Finally, optical density of each well was measured at 570 nm (OD570) using Synergy H1 multimode plate reader (BioTek Instruments, Inc., Winooski, Vt., USA). The average background OD570 of empty wells was measured and subtracted from OD570/well on the plate. The percentage of treated, viable cells (attached) was determined and a dose vs response curve was plotted as semi-log[conc] vs percentage of normalized cell viability using GraphPad Prism v. […] The half maximal inhibitory concentration (IC50) was calculated and shown in Table 3 for carbolines 18ac, 18bc, 18da and 18fa against various human cancer cell lines (FIG. 16).

A549 = experiment: Crystal violet cytotoxicity assay, A549; type: cell-based; details: Homo sapiens, 48 h incubation, triplicate
Procedure: as §1, §2

HeLa = experiment: Crystal violet cytotoxicity assay, HeLa; type: cell-based; details: Homo sapiens, 48 h incubation, triplicate
Procedure: as §1, §2

HEK293 = experiment: Crystal violet cytotoxicity assay, HEK293; type: cell-based; details: Homo sapiens, 48 h incubation, triplicate
Procedure: as §1, §2

A431 = experiment: Crystal violet cytotoxicity assay, A431; type: cell-based; details: Homo sapiens, A-431, 48 h incubation, triplicate
Procedure: as §1, §2

Mycobacterium smegmatis = experiment: In vitro Mycobacterium strains killing assay, M. smegmatis; type: cell-based
[1] = Stability in polar solvent (HRMS footnote); type: physicochemical; details: HRMS recording
HeLa cells = experiment: Live-cell confocal imaging of cell uptake; type: cell-based, human; details: 3 h incubation, confocal microscopy
Procedure: FIG. b 17 illustrates confocal microscopic studies (λex=405 nm; collection range=420-470 nm) for uptake of 18ac in HeLa cells, according to the embodiments as disclosed herein. • a) Confocal fluorescent image of HeLa cells after 3 h incubation with 10 μM concentration of 18ac (20× magnification, 2× zoom); • b) DIC image of HeLa cells • c) Overlay of (a) and (b) • d) Confocal image of HeLa cells after 3 h incubation with 100 nM concentration of 18ac (20× magnification, 2× zoom) • e) DIC image of HeLa cells • f) Overlay of (d) and (e).
To further evaluate cell uptake of the novel carbolines, live-cell imaging experiment was performed. HeLa cells were plated in a 4-well confocal dish (cell count=10^4 cells per well) and incubated for 48 h at 37° C. under 5% CO2. After 3 h of incubation with 18ac (10 nM, 100 nM, 1 μM, 10 μM, and 100 μM), cellular uptake and distribution were monitored by using confocal microscopy (λex=405 nm; collection range=420-470 nm).

## CCOC(=O)c1cc2c(c(-c3cc4ccccc4n3C)n1)c1ccccc1n2C
other
  melting point: 175 to 177 °C

## COC(=O)c1cc2c(c(-c3cc4ccccc4n3C)n1)c1ccccc1n2C
other
  melting point: 210 to 212 °C

## CC(C)(C)OC(=O)c1cc2c(c(-c3cc4ccccc4n3Cc3ccccc3)n1)c1ccccc1n2Cc1ccccc1 [18bc, Tert-butyl 5-benzyl-1-(1-benzyl-1H-indol-2-yl)-5H-pyrido[4,3-b]indole-3-carboxylate]
other
  melting point: 148 to 150 °C
MCF-7
  pIC50: 5.15
A549
  pIC50: 5.26
HeLa
  pIC50: 5.09
HEK293
  pIC50: 5.15
A431
  pIC50: 5.04

## COC(=O)c1cc2occc2c(-c2ccco2)n1
other
  melting point: 95 to 97 °C

## CCOC(=O)c1cc2oc3ccccc3c2c(-c2cc3ccccc3o2)n1
other
  melting point: 141 to 143 °C

## COC(=O)c1cc2c(ccn2S(=O)(=O)c2ccc(C)cc2)c(-c2cccn2S(=O)(=O)c2ccc(C)cc2)n1
other
  melting point: 120 to 122 °C

## CC(C)(C)OC(=O)c1cc2oc3ccccc3c2c(-c2cc3ccccc3o2)n1
other
  melting point: 100 to 102 °C

## COC(=O)c1cc2oc3ccccc3c2c(-c2cc3ccccc3o2)n1
other
  melting point: 163 to 165 °C

## COC(=O)c1cc2c(ccn2S(=O)(=O)c2ccccc2)c(-c2cccn2S(=O)(=O)c2ccccc2)n1
other
  melting point: 104 to 106 °C

## Cc1ccc(-c2nc(COCc3cn(CCN4C(=O)C(=O)c5ccccc54)nn3)cc3oc(C)cc23)o1 [compound 26, 1-(2-(4-(((2-Methyl-4-(5-methylfuran-2-yl)furo[3,2-c]pyridin-6-yl)methoxy)methyl)-1H-1,2,3-triazol-1-yl)ethyl)indoline-2,3-dione]
Mycobacterium smegmatis
  concentration range in which active (antituberculosis activity): 70 to 100 µM and 50 to 100 µM

## COC(=O)C1=Cc2c(c3ccccc3n2S(=O)(=O)c2ccc(C)cc2)C(c2cc3ccccc3n2S(=O)(=O)c2ccc(C)cc2)N1 (stereo not shown) [18fa, Methyl 5-tosyl-1-(1-tosyl-1H-indol-2-yl)-2,5-dihydro-1H-pyrido[4,3-b]indole-3-carboxylate]
other
  melting point: 205 to 207 °C
MCF-7
  pIC50: 5.43
A549
  pIC50: 5.30
HeLa
  pIC50: 5.97
HEK293
  pIC50: 5.30
A431
  pIC50: 5.45

## COC(=O)c1cc2c(c(-c3cc4ccccc4n3Cc3ccc(OC)cc3)n1)c1ccccc1n2Cc1ccc(OC)cc1 [18da, Methyl 5-(4-methoxybenzyl)-1-(1-(4-methoxybenzyl)-1H-indol-2-yl)-5H-pyrido[4,3-b]indole-3-carboxylate]
other
  melting point: 106 to 108 °C
MCF-7
  pIC50: 5.52
A549
  pIC50: 5.29
HeLa
  pIC50: 5.89
HEK293
  pIC50: 5.17
A431
  pIC50: 5.35

## NC(=O)c1cc2c(ccn2Cc2ccccc2)c(-c2cccn2Cc2ccccc2)n1 [compound 11, 1-Benzyl-4-(1-benzyl-1H-pyrrol-2-yl)-1H-pyrrolo[3,2-c]pyridine-6-carboxamide]
[1]
  stability in polar solvent: unstable in polar solvent

## COC(=O)c1cc2c(c(-c3cc4cc(OC)ccc4n3C)n1)c1cc(OC)ccc1n2C
other
  melting point: 160 to 162 °C

## CC(C)(C)OC(=O)c1cc2occc2c(-c2ccco2)n1
other
  melting point: 78 to 80 °C

## COC(=O)c1cc2c(ccn2Cc2ccccc2)c(-c2cccn2Cc2ccccc2)n1
other
  melting point: 134 to 136 °C

## COC(=O)c1cc2c(c(-c3cc4ccccc4n3Cc3ccccc3)n1)c1ccccc1n2Cc1ccccc1
other
  melting point: 168 to 170 °C

## Cn1c(-c2nc(C(=O)OC(C)(C)C)cc3c2c2ccccc2n3C)cc2ccccc21 [18ac, Tert-butyl 5-methyl-1-(1-methyl-1H-indol-2-yl)-5H-pyrido[4,3-b]indole-3-carboxylate]
other
  melting point: 200 to 202 °C
MCF-7
  pIC50: 5.25
A549
  pIC50: 5.34
HeLa
  pIC50: 5.31
HEK293
  pIC50: 5.64
HeLa cells; 100 nM concentration
  cellular uptake: nominal uptake
HeLa cells; 10 μM concentration
  cellular uptake: Decent cytosolic uptake
A431
  pIC50: 5.31
